The values that follow are results of earlier work, collected in US11266626B2, “Reduction of ER-MAM-localized APP-C99 and methods of treating alzheimer's disease” (THE TRUSTEES OF COLUMBIA UNIVERSITY IN THE CITY OF NEW YORK, priority 2015, dated 2022).

The conditions of the data set: Ghanbarabadi et al.; cited from earlier work.

For `CC(C)=CCC/C(C)=C/COc1ccc2ccc(=O)oc2c1` [auraptene, 7-geranyloxycoumarin], the memory result is reported as “enhances memory”.
